Laboratory results from patent publication US4119667A, “Haloaniline derivatives as plant growth modifiers” (Rohm and Haas Company, priority 1974, dated 1978).
Read-outs that look alike come from different tables or passages of the source.

Experiments:
soybean (Var. Clark) [1] = assay: greenhouse growth regulator test on soybean (Table I); format: in vivo; settings: two weeks after application; for Injury (0-10): 0-10 scale, 0 = no effect, 10 = complete kill; for pest or weed control / pest or weed control at 2241.7 g/ha: Glycine max, foliar, 336 h, relative to control, read-out: Height (% inhib.)
Text: Limited greenhouse experiments shown that there is promotion of lateral bud growth when compounds are applied at higher concentrations and earlier timings and an increase in soybean pod numbers at lower rates applied just prior to or at the flowering stage. […] Three parameters are reported in Table I to indicate the general spectrum of activity for each evaluated compound including the propensity for releasing lateral bud growth in soybeans. These are: (a) plant height measured as percent inhibition relative to the control; (b) the number of lateral buds per plant; and (c) phytotoxic injury on a scale of 0 to 10 (10 being maximum injury). Sampling compounds were evaluated in the greenhouse in a special growth regulator test. Four to five soybean seeds (Var. Clark) were planted in 4-inch pots with a humus-soil mixture. Two weeks after planting, two uniform plants were selected from each pot for treatment. The candidate compounds were dissolved in acetone-water (1:1), and applied as a foliar spray in a carrier volume of 50 gallons per acre, using a moving belt sprayer at a rate of 1/4, 1/2 and 2 lbs/acre. Six plants were used for each treatment. Two weeks after application, the number of laterals per plant, plant injury (0-10 scale; 0 = no effect, 10 = complete kill,) and the height of each plant were recorded. Untreated plants were used as controls.

soybean (Var. Clark) [2] = assay: effect of haloaniline derivatives on soybean yields at different rates and stages of growth (Table VIII); format: in vivo
Procedure: a further experiment was conducted to determine the effect of selected haloaniline derivatives on soybean yields at different rates of application, and at differing stages of growth.
Soybeans (Var. Clark) were planted at the rate of 4 seeds per 6 inch pot in a medium of 1 part humus and 2 parts soil. Two weeks after planting two uniform plants were selected from each pot for treatment. The soybeans were treated weekly with a high analysis liquid fertilizer. The candidate compounds were dissolved in acetone-water (1:1) and applied at three timings as a foliar spray in a carrier volume of 50 gallons per acre using a moving belt sprayer at rates ranging from 0.1 to two lbs. per acre. Six plants were used for each treatment. The beans were harvested eight weeks after the third treatment and the seeds and pods per plant were counted.

| SMILES | No. Laterals per plant (soybean (Var. Clark) [1]; 1/2 lbs/acre foliar spray) | Injury (0-10) (soybean (Var. Clark) [1]; 1/2 lbs/acre) | No. Laterals per plant (soybean (Var. Clark) [1]; 1/4 lbs/acre foliar spray) | Injury (0-10) (soybean (Var. Clark) [1]; 1/4 lbs/acre) | No. Laterals per plant (soybean (Var. Clark) [1]; 2 lbs/acre foliar spray) | Injury (0-10) (soybean (Var. Clark) [1]; 2 lbs/acre) | pest or weed control (soybean (Var. Clark) [1]; 1/2 lbs/acre foliar spray) | pest or weed control (soybean (Var. Clark) [1]; 1/4 lbs/acre foliar spray) | pest or weed control at 2241.7 g/ha (soybean (Var. Clark) [1]; 2 lbs/acre foliar spray) | Pods per Plant (soybean (Var. Clark) [2]; 2nd treatment, 0.10 lbs./A) | Seeds per Plant (soybean (Var. Clark) [2]; 2nd treatment, 0.10 lbs./A) | Seeds per Pod (soybean (Var. Clark) [2]; 2nd treatment, 0.10 lbs./A) | Pods per Plant (soybean (Var. Clark) [2]; 2nd treatment, 0.30 lbs./A) | Seeds per Plant (soybean (Var. Clark) [2]; 2nd treatment, 0.30 lbs./A) | Seeds per Pod (soybean (Var. Clark) [2]; 2nd treatment, 0.30 lbs./A) | Pods per Plant (soybean (Var. Clark) [2]; 2nd treatment, 0.90 lbs./A) | Seeds per Plant (soybean (Var. Clark) [2]; 2nd treatment, 0.90 lbs./A) | Seeds per Pod (soybean (Var. Clark) [2]; 2nd treatment, 0.90 lbs./A) | Pods per Plant (soybean (Var. Clark) [2]; 3rd treatment, 0.10 lbs./A) | Seeds per Plant (soybean (Var. Clark) [2]; 3rd treatment, 0.10 lbs./A) | further results |
| --- | --- | --- | --- | --- | --- | --- | --- | --- | --- | --- | --- | --- | --- | --- | --- | --- | --- | --- | --- | --- | --- |
| Clc1cc(Cl)cc(NCNc2cc(Cl)cc(Cl)c2)c1 [I, N,N'-Bis[3,5-dichlorophenyl]methanediamine] | 3 | 0 | 1 | 0 | 5 | 1 | 4% | 5% | 17% | 24.5 | 42.7 | 1.7 | 14.5 | 9.3 | 0.6 | 9.0 | 4.3 | 0.5 | 7.0 | 12.8 | Seeds per Pod (soybean (Var. Clark) [2]; 3rd treatment, 0.10 lbs./A): 1.8; Pods per Plant (soybean (Var. Clark) [2]; 3rd treatment, 0.30 lbs./A): 8.3; Seeds per Plant (soybean (Var. Clark) [2]; 3rd treatment, 0.30 lbs./A): 13.3; Seeds per Pod (soybean (Var. Clark) [2]; 3rd treatment, 0.30 lbs./A): 1.6; Pods per Plant (soybean (Var. Clark) [2]; 3rd treatment, 0.90 lbs./A): 7.2; Seeds per Plant (soybean (Var. Clark) [2]; 3rd treatment, 0.90 lbs./A): 13.3; Seeds per Pod (soybean (Var. Clark) [2]; 3rd treatment, 0.90 lbs./A): 1.5 |
| Clc1cc(Cl)cc(N=Cc2ccccc2)c1 [IV, 3,5-dichloro-N-benzylideneaniline] | 2 | 0 | 3 | 0 | 5 | 1 | 5% | 7% | 17% | 8.3 | 8.3 | 1.0 | 0.7 | 1.0 | 1.5 | 2.7 | 3.2 | 1.2 | 16.5 | 37.0 | Seeds per Pod (soybean (Var. Clark) [2]; 3rd treatment, 0.10 lbs./A): 2.2; Pods per Plant (soybean (Var. Clark) [2]; 3rd treatment, 0.30 lbs./A): 13.2; Seeds per Plant (soybean (Var. Clark) [2]; 3rd treatment, 0.30 lbs./A): 23.3; Seeds per Pod (soybean (Var. Clark) [2]; 3rd treatment, 0.30 lbs./A): 1.7; Pods per Plant (soybean (Var. Clark) [2]; 3rd treatment, 0.90 lbs./A): 19.3; Seeds per Plant (soybean (Var. Clark) [2]; 3rd treatment, 0.90 lbs./A): 37.7; Seeds per Pod (soybean (Var. Clark) [2]; 3rd treatment, 0.90 lbs./A): 1.9 |
| Clc1ccc(N=Cc2ccccc2)cc1Cl [XIII, 3,4-Dichloro-N-benzylideneaniline] | 4 | 0 | 2 | 1 | 3 | 4 | 9% | 17% | 19% | 13.7 | 20.5 | 1.5 | 12.0 | 17.7 | 1.5 | 5.2 | 6.7 | 1.3 | 5.5 | 7.8 | Seeds per Pod (soybean (Var. Clark) [2]; 3rd treatment, 0.10 lbs./A): 1.4; Pods per Plant (soybean (Var. Clark) [2]; 3rd treatment, 0.30 lbs./A): 11.0; Seeds per Plant (soybean (Var. Clark) [2]; 3rd treatment, 0.30 lbs./A): 17.2; Seeds per Pod (soybean (Var. Clark) [2]; 3rd treatment, 0.30 lbs./A): 1.6; Pods per Plant (soybean (Var. Clark) [2]; 3rd treatment, 0.90 lbs./A): 9.3; Seeds per Plant (soybean (Var. Clark) [2]; 3rd treatment, 0.90 lbs./A): 16.7; Seeds per Pod (soybean (Var. Clark) [2]; 3rd treatment, 0.90 lbs./A): 1.8 |
| O=CNc1cc(Cl)cc(Cl)c1 [XVIII, 3',5'-dichloroformanilide] | 5 | 1 | 4 | 0 | 5 | 1 | 11% | 3% | 15% | 16.2 | 17.5 | 1.1 | 9.2 | 6.3 | 0.7 | 0.5 | 0.5 | 1.0 | 9.3 | 15.2 | Pods per Plant (soybean (Var. Clark) [2]; 1st treatment, 0.25 lbs./A): 1.4; Seeds per Plant (soybean (Var. Clark) [2]; 1st treatment, 0.25 lbs./A): 0.0; Seeds per Pod (soybean (Var. Clark) [2]; 1st treatment, 0.25 lbs./A): 0.0; Pods per Plant (soybean (Var. Clark) [2]; 1st treatment, 0.50 lbs./A): 0.8; Seeds per Plant (soybean (Var. Clark) [2]; 1st treatment, 0.50 lbs./A): 1.0; Seeds per Pod (soybean (Var. Clark) [2]; 1st treatment, 0.50 lbs./A): 1.3; Pods per Plant (soybean (Var. Clark) [2]; 1st treatment, 1.00 lbs./A): 0.0; Seeds per Plant (soybean (Var. Clark) [2]; 1st treatment, 1.00 lbs./A): 0.0; Seeds per Pod (soybean (Var. Clark) [2]; 1st treatment, 1.00 lbs./A): 0.0; Pods per Plant (soybean (Var. Clark) [2]; 1st treatment, 2.00 lbs./A): 0.0; Seeds per Plant (soybean (Var. Clark) [2]; 1st treatment, 2.00 lbs./A): 0.0; Seeds per Pod (soybean (Var. Clark) [2]; 1st treatment, 2.00 lbs./A): 0.0; Seeds per Pod (soybean (Var. Clark) [2]; 3rd treatment, 0.10 lbs./A): 1.6; Pods per Plant (soybean (Var. Clark) [2]; 3rd treatment, 0.30 lbs./A): 5.2; Seeds per Plant (soybean (Var. Clark) [2]; 3rd treatment, 0.30 lbs./A): 10.5; Seeds per Pod (soybean (Var. Clark) [2]; 3rd treatment, 0.30 lbs./A): 2.0; Pods per Plant (soybean (Var. Clark) [2]; 3rd treatment, 0.90 lbs./A): 5.2; Seeds per Plant (soybean (Var. Clark) [2]; 3rd treatment, 0.90 lbs./A): 9.5; Seeds per Pod (soybean (Var. Clark) [2]; 3rd treatment, 0.90 lbs./A): 1.8 |
